Assay results as given in patent US20090181098A1, “Hmg-Co-a Reductase Inhibitor Enhancement of Bone and Cartilage” (OsteoScreen IP, LLC, priority 2006, published 2009).

How the values were obtained:
femur fracture model = tested on: femur fracture model
From the text: In accordance with the study, the clinical focus involves creating uniform and reproducible fracture defects utilizing a pinned closed transverse rat femoral model chosen because it has been well defined and fully characterized by mechanical and histologic methods. Advantages of this model include reproducibility, defect uniformity, and a rapid 5 weeks to clinical union healing phase. The properties of the bioactive coating are investigated in preliminary studies in vitro and in vivo using the explanted calvarial culture and the local calvarial injection model including drug-release kinetics, degradation and stability. The aims of the study are: (1) to evaluate the effect of controlled-released locally administered lovastatin on callus formation, progression and fracture healing using X-ray analysis of fracture healing. At the end of the experiment, the fractured limb will be excised and X-rayed after removal of stabilizing pins. These X-rays will be assessed for evidence of healing of the fracture. They will be scored by 3 independent observers for healing of the fracture; (2) to evaluate the effect of controlled released lovastatin on biomechanical parameters by three-point bending and micro computer tomography (uCT); and (3) to evaluate by uCT bone microarchitecture at callus site and bone healing. […]

rat femur = test: Biomechanical testing of intact femurs (three point bending); format: in vivo
Experimental: Three month old rats were dosed with vehicle or transdermal lovastatin, 1 mg/kg/day for 5 days. Four weeks after dosing, rats were euthanized and femurs removed and stored frozen. Samples were thawed to room temperature on the day of testing, and remaining soft tissue was removed. To obtain mechanical properties, the femurs were subjected to three point bending with an EnduraTEC mechanical testing system (Elf 3300, Bose Corporation, Minnetonka, Minn.). Each rat femur was horizontally positioned on the support rollers (which were 12 mm apart) such that the vertical, rounded indenter loaded the femur with the medial side in front and the anterior side down (i.e., bending occurred about the medial-lateral axis). The force-displacement curve was recorded as the indenter traveled at rate of 3 mm/min into femur midshaft. Structural properties were obtained directly from the load deformation curves.

[1] = transdermal 1 mg/kg/day for 5 days, femurs four weeks after dosing

## CC[C@H](C)C(=O)O[C@H]1C[C@@H](C)C=C2C=C[C@H](C)[C@H](CC[C@@H]3C[C@@H](O)CC(=O)O3)[C@H]21 [lovastatin]
Femur fracture model; released from nanobeads at fracture site
  Lowest lovastatin amount tested giving a significant increase in radiographic score: 0.2 µg/day
Femur fracture model; single injection of nanobeads at fracture site, 2 weeks
  Lovastatin release giving maximum radiographic score: 1.5 µg/day
Rat femur; dermal 1 mg/kg/day for 5 days
  Increase in bending strength of femurs vs control: 19%
Rat femur; [1]
  Bending strength: 165.2 ± 3 MPa
  Maximum force: 141.7 ± 3.4 N
  Modulus of elasticity: 6379.9 ± 455.1 MPa
  Stiffness: 561.3 ± 29.5 N/mm
